Tested on: KPC-N cells
Test: Antitumor effect by TLR3 ligand, pancreatic cancer model
Format: in vivo, C57BL/6 mice
Settings: 50 μg intratumoral on day 8; N=6
Protocol: PolyI:C (Poly (I:C) (HMW) VacciGrade™: InvivoGen), which is a TLR3 ligand, was used.
1.5×10^6 KPC-N cells were subcutaneously transplanted to the back of 6- to 8-week-old C57BL/6 mice, and two groups (each group N=6) of non-treatment group (Control) and polyI:C group were established. To the tumor of the mice on day 8 after subcutaneous transplantation was topically injected (intratumoral administration) 50 μg of polyI:C.

polyI:C was tested, and the “antitumor effect (tumor size)” value was “no antitumor effect”.

From patent US20250222108A1, “MEDICAL AGENT INCLUDING ADJUVANT AND COMPOSITE OF PHOTOSENSITIVE MOLECULE AND MOLECULE BINDING TO CANCER-SPECIFIC CELL SURFACE MOLECULE” (KYOTO UNIVERSITY, priority 2021, published 2025)
